Assay type in all cases: functional
The nature of assay [1]: Growth inhibition of human HL60 cells at 30 uM after 72 hrs by MTT assay. The following applies: HL-60, 72 h, read-out: GI. A general note: Tetrazolium dyes change colour on reduction, which living cells bring about.
A short description of assay [2]: Growth inhibition of human HL60 cells at 50 uM after 72 hrs by MTT assay. Particulars: HL-60, 72 h, read-out: GI.
Assay [3] is described as follows: Growth inhibition of human MIAPaCa2 cells at 30 uM after 72 hrs by MTT assay. The following applies: MIA PaCa-2, 72 h, read-out: GI.
Assay [4] is described as follows: Growth inhibition of human MIAPaCa2 cells at 50 uM after 72 hrs by MTT assay. The following applies: MIA PaCa-2, 72 h, read-out: GI.
The subject of assay [5] is MCF7. Kind of assay: Growth inhibition of human MCF7 cells at 30 uM after 72 hrs by MTT assay. The following applies: MCF7, 72 h, read-out: GI.
In assay [6] the test system is MCF7. Briefly: Growth inhibition of human MCF7 cells at 50 uM after 72 hrs by MTT assay. Particulars: MCF7, 72 h, read-out: GI.
Assay [7] has as its system HepG2. Briefly: Growth inhibition of human HepG2 cells at 30 uM after 72 hrs by MTT assay. Particulars: HepG2, 72 h, read-out: GI.
Assay [8] concerns HepG2. Kind of assay: Growth inhibition of human HepG2 cells at 50 uM after 72 hrs by MTT assay. The following applies: HepG2, 72 h, read-out: GI.
In assay [9] the test system is SK-N-SH. Kind of assay: Growth inhibition of human SK-N-SH cells at 30 uM after 72 hrs by MTT assay. Particulars: read-out: GI.
Assay [10] concerns SK-N-SH. Kind of assay: Growth inhibition of human SK-N-SH cells at 50 uM after 72 hrs by MTT assay. Particulars: read-out: GI.

In ChEMBL document CHEMBL3407403, “Synthetic modification of hydroxychavicol by Mannich reaction and alkyne-azide cycloaddition derivatives depicting cytotoxic potential” (Eur J Med Chem, 2015) one finds inhibition of growth data, which are given here for 16 compounds.

Turning to `C=CCc1ccc(OCc2cn(-c3cccc([N+](=O)[O-])c3)nn2)c(O)c1`, the inhibition of growth at 30 µM stood at 29.8% in assay [1]; 42.9% in [3]; 42.3% in the assay on MCF7 [5]; 15.2% in the assay with HepG2 [7]; 31.1% in the assay with SK-N-SH [9]. Also, the inhibition of growth at 50 µM in assay [2] is 65.5%; in assay [4] it was 58.8%; in the assay on MCF7 [6], 56.5%; with HepG2 [8] it was 30.2%; in the assay with SK-N-SH [10], 68.9%.

`C=CCc1cc(O)c(O)c(CN2CCN(c3ccc(C(C)=O)cc3)CC2)c1`: the inhibition of growth at 30 µM in [1] came to 87.9%; in assay [3], 86.2%; with MCF7 [5], 42.8%; with HepG2 [7] it was 46.1%; in the assay on SK-N-SH [9] it was 53.8%. The inhibition of growth at 50 µM is 89.2% in [2]; 75.1% in assay [4]; 47.1% in the assay on MCF7 [6]; 65.9% with HepG2 [8]; 54.6% in the assay with SK-N-SH [10].

`C=CCc1cc(O)c(O)c(CN2CCC(CCO)CC2)c1`: the inhibition of growth at 30 µM turned out to be 39.4% in assay [1]; 54.4% in assay [3]; 21.4% with MCF7 [5]; 2.5% in the assay with HepG2 [7]; 15.3% in the assay on SK-N-SH [9]. For the same compound, the inhibition of growth at 50 µM in [2] was 52.1%; in assay [4], 71.8%; in the assay on MCF7 [6], 33.3%; with HepG2 [8], 2%; with SK-N-SH [10] it was 40.6%.

Turning to `C=CCc1ccc(OCc2cn(-c3ccccc3CO)nn2)c(O)c1`, the inhibition of growth at 30 µM in [1] worked out at 31.7%; in [3] it was 39.6%; with MCF7 [5] it was 34.5%; with HepG2 [7], 4.2%; in the assay with SK-N-SH [9], 12.9%. The inhibition of growth at 50 µM worked out at 47.1% in assay [2]; 52.1% in assay [4]; 40.4% in the assay with MCF7 [6]; 8.5% in the assay on HepG2 [8]; 87.1% with SK-N-SH [10].

Take `C=CCc1ccc(OCc2cn(-c3ccc(Br)cc3)nn2)c(O)c1`: the inhibition of growth at 30 µM in [1] worked out at 22.1%; in [3], 43.3%; with MCF7 [5] it was 19.4%; in the assay with HepG2 [7], 8.9%; in the assay with SK-N-SH [9], 38.3%. In addition, the inhibition of growth at 50 µM in [2] was 25.6%; in assay [4], 47.3%; with MCF7 [6], 29.1%; in the assay with HepG2 [8] it was 9.5%; with SK-N-SH [10], 61.7%.

Take `C=CCc1cc(O)c(O)c(CN2CCN(C)CC2)c1`: the inhibition of growth at 30 µM came out at 42.1% in assay [1]; 46.8% in assay [3]; 22.8% with MCF7 [5]; 1.5% with HepG2 [7]; 24.7% in the assay on SK-N-SH [9]. For the same compound, the inhibition of growth at 50 µM in assay [2] was found to be 53.4%; in assay [4], 69.5%; with MCF7 [6], 35.1%; with HepG2 [8], 6.3%; in the assay on SK-N-SH [10], 30.8%.

Take `C=CCc1ccc(OCc2cn(-c3cccc(C#N)c3)nn2)c(O)c1`: the inhibition of growth at 30 µM was determined as 22.5% in [1]; 26.6% in [3]; 31.9% in the assay on MCF7 [5]; 2.3% in the assay on HepG2 [7]; 21.2% in the assay with SK-N-SH [9]. The inhibition of growth at 50 µM in assay [2] turned out to be 30.9%; in assay [4], 41.6%; in the assay with MCF7 [6], 33.4%; in the assay on HepG2 [8], 3.4%; in the assay on SK-N-SH [10] it was 78.8%.

Regarding `C=CCc1cc(O)c(O)c(CN2CCC(CO)CC2)c1`, the inhibition of growth at 30 µM in assay [1] was 37.7%; in assay [3], 34.1%; in the assay on MCF7 [5], 26.2%; with HepG2 [7], 4.7%; in the assay with SK-N-SH [9], 21.9%. The inhibition of growth at 50 µM was determined as 43.3% in assay [2]; 38.6% in [4]; 32.3% in the assay on MCF7 [6]; 5.4% with HepG2 [8]; 49.4% in the assay on SK-N-SH [10].

With `C=CCc1ccc(OCc2cn(-c3ccccc3Cl)nn2)c(O)c1`, the inhibition of growth at 30 µM in assay [1] turned out to be 38.7%; in [3], 46.6%; in the assay on MCF7 [5] it was 58.3%; in the assay with HepG2 [7] it was 2.5%; in the assay with SK-N-SH [9], 10.2%. Besides, the inhibition of growth at 50 µM is 43.2% in assay [2]; 57.7% in assay [4]; 34.3% in the assay on MCF7 [6]; 4.7% in the assay with HepG2 [8]; 42.8% in the assay with SK-N-SH [10].

On to `C=CCc1ccc(OCc2cn(-c3ccc(C#N)cc3)nn2)c(O)c1`, for which the inhibition of growth at 30 µM in [1] was determined as 20.8%; in assay [3] it was 39.3%; in the assay on MCF7 [5], 35.7%; in the assay with HepG2 [7], 1.5%; with SK-N-SH [9], 37.5%. The inhibition of growth at 50 µM stood at 31.8% in [2]; 45.9% in assay [4]; 35.6% with MCF7 [6]; 12.1% in the assay with HepG2 [8]; 62.5% in the assay on SK-N-SH [10].

On to `C=CCc1cc(O)c(O)c(CN2CCC(C)CC2)c1`, for which the inhibition of growth at 30 µM in assay [1] turned out to be 91.1%; in [3], 91.5%; in the assay on MCF7 [5], 41.7%; in the assay with HepG2 [7], 57.6%; in the assay on SK-N-SH [9] it was 74.7%. Further, the inhibition of growth at 50 µM in assay [2] came out at 91.8%; in assay [4], 90.6%; with MCF7 [6], 54.2%; in the assay with HepG2 [8], 69.7%; with SK-N-SH [10], 84.2%.

With `C=CCc1ccc(OCc2cn(-c3ccc(C(=O)c4ccccc4)cc3)nn2)c(O)c1`, the inhibition of growth at 30 µM came to 38.3% in assay [1]; 40.1% in [3]; 40.3% with MCF7 [5]; 14.8% with HepG2 [7]; 41.9% with SK-N-SH [9]. The inhibition of growth at 50 µM was 40.5% in assay [2]; 53.7% in assay [4]; 35.6% with MCF7 [6]; 16.2% in the assay with HepG2 [8]; 58.1% in the assay with SK-N-SH [10].

Regarding `C=CCc1ccc(OCc2cn(-c3cc(OC)c(OC)c(OC)c3)nn2)c(O)c1`, the inhibition of growth at 30 µM was 32.8% in assay [1]; 41.1% in assay [3]; 37.3% in the assay on MCF7 [5]; 1.2% in the assay on HepG2 [7]; 44.1% with SK-N-SH [9]. The inhibition of growth at 50 µM worked out at 41.4% in assay [2]; 49.8% in assay [4]; 38.1% with MCF7 [6]; 2.5% in the assay with HepG2 [8]; 55.9% in the assay with SK-N-SH [10].

In the case of `C#CCOc1ccc(CC=C)cc1O`, the inhibition of growth at 30 µM came out at 30.7% in assay [1]; 27.4% in [3]; 23.7% in the assay on MCF7 [5]; 1.5% with HepG2 [7]; 11.8% in the assay on SK-N-SH [9]. Moreover, the inhibition of growth at 50 µM in assay [2] was found to be 34.2%; in assay [4], 30.3%; in the assay with MCF7 [6], 15.8%; in the assay on HepG2 [8] it was 5.6%; in the assay with SK-N-SH [10] it was 88.4%.

`C=CCc1cc(O)c(O)c(CN2CCOCC2)c1`: the inhibition of growth at 30 µM in assay [1] stood at 89.8%; in assay [3], 54.4%; in the assay on MCF7 [5], 33.5%; with HepG2 [7], 2.1%; in the assay with SK-N-SH [9], 49.6%. Moreover, the inhibition of growth at 50 µM was determined as 90.5% in assay [2]; 67.5% in assay [4]; 48.9% with MCF7 [6]; 6.5% in the assay on HepG2 [8]; 86.1% with SK-N-SH [10].

On to `C=CCc1ccc(OCc2cn(-c3ccc(OC)cc3)nn2)c(O)c1`, for which the inhibition of growth at 30 µM in assay [1] turned out to be 21.3%; in [3], 62.3%; in the assay with MCF7 [5] it was 38.8%; in the assay on HepG2 [7] it was 15.4%; with SK-N-SH [9], 31.5%. Besides, the inhibition of growth at 50 µM in assay [2] worked out at 38.9%; in [4], 88.2%; in the assay on MCF7 [6], 57.2%; in the assay on HepG2 [8], 49.9%; in the assay on SK-N-SH [10], 68.5%.
